Laboratory results published in patent publication US20260137706A1, “METHODS OF TREATING INFLAMMATORY DISEASES” (INTERLINE THERAPEUTICS, INC., priority 2023, published 2026).
Like-named read-outs stand apart in the source and are kept apart here.

What was measured:
[1] = target: T1, binding of His-XIAP(BIR2)-avi fusion protein to GST-RIPK2 fusion protein (RIPK2/XIAP) (Homo sapiens, UniProt O43353); experiment: RIPK2-XIAP binding competition PPI assay (TR-FRET); conditions: RIPK2/XIAP binding competition PPI assay; for Emax: read-out: PPI Amax bin; for IC50: read-out: PPI IC50 bin
T1 construct: made in house; host or cells: baculovirus infected Sf9 cells
T1 sequence (O43353 1-310 limits assumed): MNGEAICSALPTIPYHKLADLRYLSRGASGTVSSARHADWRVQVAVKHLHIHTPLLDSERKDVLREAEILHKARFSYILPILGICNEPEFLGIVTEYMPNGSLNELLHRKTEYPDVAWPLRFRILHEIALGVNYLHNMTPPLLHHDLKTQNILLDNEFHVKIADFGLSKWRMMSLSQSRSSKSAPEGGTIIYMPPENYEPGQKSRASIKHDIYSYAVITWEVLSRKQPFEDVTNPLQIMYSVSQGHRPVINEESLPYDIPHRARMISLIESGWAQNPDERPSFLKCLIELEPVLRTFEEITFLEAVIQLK
Excerpt: The ability of selected compounds of Formula (I) to inhibit the binding of an His-XIAP(BIR2)-avi fusion protein to a GST-RIPK2 fusion protein was quantified employing the TR-FRET-based competition assay as described in the following paragraphs.
Recombinant fusion protein of N-terminal Glutathione-S-Transferase (GST) and a fragment of human RIPK2 (amino acids 1-310 of accession number 043353), expressed in baculovirus infected Sf9 cells, purified via glutathione affinity chromatography, was used as GST-RIPK2 fusion protein. Recombinant fusion protein of N-terminal 6×Histidine (His), a fragment of human XIAP (amino acids 152-231 of accession number P98170), and C-terminal avi tag, expressed in baculovirus infected Sf9 cells, purified via Nickel NTA affinity chromatography, was used as the His-XIAP(BIR2)-avi fusion protein.
For the assay, a working solution of 1 nM GST-RIPK2, 25 nM His-XIAP(BIR2)-avi, 6 nM Anti-His-XL665 […] (Revvity Catalogue No. 61HISXLB), and 0.5 nM Anti-GST-Tb (Revvity Catalogue No. 61GSTTLB) in 25 mM Tris-HCl 7.5, 0.5 mM ethylene glycol-bis(2-aminoethylether)-N,N,N′,N′-tetraacetic acid (EGTA), 10 mM magnesium chloride (MgCl2), 2.5 mM dithiothreitol (DTT), 0.01% (w/v) bovine serum albumin (BSA), 0.005% (w/v) Pluronic F-127 (Sigma), 0.5 mM sodium ortho-vanadate, 5 mM β-Glycerophosphate disodium salt hydrate (BGP) was prepared. 50 nL of a 100-fold concentrated solution of each test compound in DMSO was dispensed via acoustic dispensing into a white low volume 384-well microtiter plate (Perkin Elmer Catalogue No. 6008280). Subsequently, 5 μL of the assay working solution were added.
The resulting mixture was incubated 120 min at 23° C. Subsequently, the amount of complex formed by the GST-RIPK2, XIAP(BIR2)-avi, Anti-His-XL665, and Anti-GST-Tb was evaluated by measurement of the resonance energy transfer from the Tb-cryptate to the XL665. Therefore, the fluorescence emissions at 520 nm and 665 nm after excitation at 337 nm were measured in a TR-FRET reader, e.g. a Pherastar FS (BMG Labtechnologies, Offenburg, Germany) or an Envision (PerkinElmer). The ratio of the emissions at 665 nm and at 520 nm was taken as the measure of the amount of the complex. The data were normalized (assay reaction without inhibitor=0% activity, 50 nM of GSK583=−100% activity).
For the RIPK2/XIAP binding competition PPI assay Amax values, “A” denotes an Amax of ≥80%; “B” denotes an Amax of 80%>B≥55; “C” denotes an Amax of 55%>C>30; and “D” denotes an Amax of ≤30%.

[2] = tested on: NF-κB pathway (SEAP) in THP1-Dual cells; experiment: THP-1 Dual cell SEAP assay (L18-MDP stimulated); format: cell-based; conditions: read-out: NF-κB THP1 IC50 bin
Method: THP1-Dual™ cells (InvivoGen Cat #thpd-nfis) allow simultaneous assessment of the NF-κB pathway, by monitoring the activity of secreted embryonic alkaline phosphatase (SEAP) as well as the IRF pathway, by assessing the activity of a secreted luciferase (Lucia). Cells were cultured according to manufacturers' recommendations. For the assay, cell concentration was adjusted to 7.14×10^5 cells/mL in assay media (RPMI 1640, 2 mM L-Glutamine, 25 mM HEPES, 10% fetal bovine serum (heat-inactivated for 30 min at 56° C.), Pen-Strep (100 U/mL)) and 35 µL of cell suspension (˜25,000 cells) per well were added to a flat bottom 384-well plate (white opaque). Plate was centrifuged at 300 g for 2 min, compounds were added in serial dilution series according to the plate layout (volumes ˜500 nL-0.0152 nL) and plate was incubated at 37° C. in 5% CO2 for 30 min. Using assay media, a L18-MDP stock solution, that results in a final concentration of 10 ng/mL L18-MDP in each well when adding 15 μL to each well, was prepared. 15 μL of L18-MDP stock solution was added to each well, while 15 μL of assay media was added to the negative control wells. Plates were subsequently incubated at 37° C. in 5% CO2 overnight (20-24 h).
For the SEAP assay: without disturbing the cells at the bottom of the well, 15 μL supernatant was transferred to a clear 384-well flat bottom plate and 35 μL QUANTI-Blue Solution per well was added. Following a 2 h incubation at 37° C., the optical density (OD) was measured at 620-655 nm using a microplate reader (PheraStar FS microplate reader with protocol for OD 620-655 nm).
Values of media-only wells were subtracted and % inhibition for each compound concentration relative to the DMSO/L18-MDP-treated controls was calculated. Inhibition values+/−SD were fitted by non-linear regression using Prism software (GraphPad PRISM Software) to calculate IC50 values.

Row | SMILES | Emax ([1]; Amax) | IC50 [1] | IC50 ([2]; Homo sapiens, THP1-Dual) | PPI Amax bin ([1]; Amax) | IC50 [2]
1 | COc1cc2ncc(-c3cc(F)c(OC)c(NS(=O)(=O)c4coc(C)n4)c3)n2cc1S(=O)(=O)C(C)(C)C [Example 293, N-(5-(6-(tert-butylsulfonyl)-7-methoxyimidazo[1,2-a]pyridin-3-yl)-3-fluoro-2-methoxyphenyl)-2-methyloxazole-4-sulfonamide] | 30 to 55% | < 1 nM | < 50 nM | – | –
2 | COc1cc2ncc(-c3cc(F)c(OC)c(NS(=O)(=O)c4c(C)nn(C)c4C)c3)n2cc1S(=O)(=O)C(C)(C)C [Example 139, N-(5-(6-(tert-butylsulfonyl)-7-methoxyimidazo[1,2-a]pyridin-3-yl)-3-fluoro-2-methoxyphenyl)-1,3,5-trimethyl-1H-pyrazole-4-sulfonamide] | 55 to 80% | > 20 nM | > 1000 nM | – | –
3 | COc1cc2ncc(-c3cc(F)c(OC)c(NS(=O)(=O)c4cn[nH]c4)c3)n2cc1S(=O)(=O)C(C)(C)C [Example 140, N-(5-(6-(tert-butylsulfonyl)-7-methoxyimidazo[1,2-a]pyridin-3-yl)-3-fluoro-2-methoxyphenyl)-1H-pyrazole-4-sulfonamide] | > 80% | < 1 nM | < 50 nM | – | –
4 | COc1cc2ncc(-c3cc(F)c(OC)c(NS(=O)(=O)c4cnc(C)s4)c3)n2cc1S(=O)(=O)C(C)(C)C [Example 287, N-(5-(6-(tert-butylsulfonyl)-7-methoxyimidazo[1,2-a]pyridin-3-yl)-3-fluoro-2-methoxyphenyl)-2-methylthiazole-5-sulfonamide] | 55 to 80% | < 1 nM | 50 to 250 nM | – | –
5 | COc1ccc(-c2cnc3cc(OC)c(S(=O)(=O)C(C)(C)C)cn23)cc1NS(=O)(=O)c1cnn(C)c1 [Example 282, N-(5-(6-(tert-butylsulfonyl)-7-methoxyimidazo[1,2-a]pyridin-3-yl)-2-methoxyphenyl)-1-methyl-1H-pyrazole-4-sulfonamide] | > 80% | < 1 nM | < 50 nM | – | –
6 | COc1cc2ncc(-c3cc(F)cc(NS(=O)(=O)c4cnn(C)c4)c3)n2cc1S(=O)(=O)C(C)(C)C [Example 284, N-(3-(6-(tert-butylsulfonyl)-7-methoxyimidazo[1,2-a]pyridin-3-yl)-5-fluorophenyl)-1-methyl-1H-pyrazole-4-sulfonamide] | > 80% | < 1 nM | 50 to 250 nM | – | –
7 | COc1cc2ncc(-c3cc(F)c(OC)c(NS(=O)(=O)c4cc(C)no4)c3)n2cc1S(=O)(=O)C(C)(C)C [Example 288, N-(5-(6-(tert-butylsulfonyl)-7-methoxyimidazo[1,2-a]pyridin-3-yl)-3-fluoro-2-methoxyphenyl)-3-methylisoxazole-5-sulfonamide] | < 30% | > 20 nM | > 1000 nM | – | –
8 | COc1cc2ncc(-c3cc(F)c(OC)c(NS(=O)(=O)c4cc(C)ns4)c3)n2cc1S(=O)(=O)C(C)(C)C [Example 289, N-(5-(6-(tert-butylsulfonyl)-7-methoxyimidazo[1,2-a]pyridin-3-yl)-3-fluoro-2-methoxyphenyl)-3-methylisothiazole-5-sulfonamide] | 30 to 55% | < 1 nM | 50 to 250 nM | – | –
9 | COc1cc2ncc(-c3cc(F)c(OC)c(NS(=O)(=O)c4csc(C)n4)c3)n2cc1S(=O)(=O)C(C)(C)C [Example 291, N-(5-(6-(tert-butylsulfonyl)-7-methoxyimidazo[1,2-a]pyridin-3-yl)-3-fluoro-2-methoxyphenyl)-2-methylthiazole-4-sulfonamide] | 55 to 80% | < 1 nM | < 50 nM | – | –
10 | CC(F)(CO)COc1cc2ncc(-c3cc(Cl)c(N)nc3F)n2cc1S(=O)(=O)C(C)(C)C (single isomer, unassigned) [Example 265] | > 80% | 1 to 2.5 nM | 50 to 250 nM | – | –
11 | CC(C)(C)S(=O)(=O)c1cn2c(-c3cc(F)c(N)nc3F)cnc2cc1NCCO [Example 272, 2-((3-(6-amino-2,5-difluoropyridin-3-yl)-6-(tert-butylsulfonyl)imidazo [1,2-a]pyridin-7-yl)amino)ethan-1-ol] | > 80% | 1 to 2.5 nM | 50 to 250 nM | – | –
12 | COc1cc2ncc(-c3cc(NS(=O)(=O)c4cnn(C)c4)c(OC)c(OC)c3)n2cc1N1CCCC1=O [Example 273, N-(2,3-dimethoxy-5-(7-methoxy-6-(2-oxopyrrolidin-1-yl)imidazo[1,2-a]pyridin-3-yl)phenyl)-1-methyl-1H-pyrazole-4-sulfonamide] | > 80% | 1 to 2.5 nM | 250 to 1000 nM | – | –
13 | CC(F)(CO)COc1cc2ncc(-c3cc(F)c(N)nc3F)n2cc1S(=O)(=O)C(C)(C)C (single isomer, unassigned) [Example 260] | > 80% | 1 to 2.5 nM | 50 to 250 nM | – | –
14 | COc1cc2ncc(-c3cc(F)c(OC)c(NS(=O)(=O)c4cn[nH]c4)c3)n2cc1C(F)(F)F [Example 137, N-(3-fluoro-2-methoxy-5-(7-methoxy-6-(trifluoromethyl)imidazo[1,2-a]pyridin-3-yl)phenyl)-1H-pyrazole-4-sulfonamide] | > 80% | 2.5 to 20 nM | 250 to 1000 nM | – | –
15 | COc1c(F)cc(-c2cnc3cc(OC[C@H](C)O)c(S(=O)(=O)C(C)(C)C)cn23)cc1NS(C)(=O)=O [Example 269, (S)-N-(5-(6-(tert-butylsulfonyl)-7-(2-hydroxypropoxy)imidazo[1,2-a]pyridin-3-yl)-3-fluoro-2-methoxyphenyl) methanesulfonamide] | 55 to 80% | < 1 nM | < 50 nM | – | –
16 | CC(=O)COc1cc2ncc(-c3cc(Cl)c(N)nc3F)n2cc1S(=O)(=O)C(C)(C)C [Example 300, 1-((3-(6-amino-5-chloro-2-fluoropyridin-3-yl)-6-(tert-butylsulfonyl)imidazo[1,2-a]pyridin-7-yl)oxy)propan-2-one] | > 80% | 2.5 to 20 nM | 250 to 1000 nM | – | –
17 | COc1cc2ncc(-c3cc(NS(=O)(=O)c4cnn(C)c4)c(OC)c(OC)c3)n2cc1N1CC(C)CC1=O (single isomer, unassigned) [Example 275] | – | 1 to 2.5 nM | – | A (an Amax of ≥80%) | 50 to 250 nM
18 | COc1cc(NS(=O)(=O)c2cnn(C)c2)cc(-c2cnc3cc(OC)c(S(=O)(=O)C(C)(C)C)cn23)c1 [Example 285, N-(3-(6-(tert-butylsulfonyl)-7-methoxyimidazo[1,2-a]pyridin-3-yl)-5-methoxyphenyl)-1-methyl-1H-pyrazole-4-sulfonamide] | > 80% | < 1 nM | < 50 nM | – | –
